The results in this text go back to patent US8247397B2, “Combinations of phosphoinositide 3-kinase inhibitor compounds and chemotherapeutic agents, and methods of use” (Genentech, Inc., priority 2007, dated 2012).

The test system of the assay is pAkt (Ser473) in MDA-MB-361 cells. The assay can be described thus: Phospho AKT induction assay. The format is cell-based. The following applies: synergistic cell line MDA-MB-361, EC80 dosing, 1 hr to 24 hr. The protocol: Phospho Akt (pAkt) levels can be measured by the method described in Example 18. Low CI correlates with the effect of the chemotherapeutic to induce an increase in pAkt. Levels of pAkt (Ser473) were determined using bead kits from Biosource (Carlsbad, Calif.) and the Luminex Bio-Plex system (Bio-Rad, Hercules, Calif.).
In a 6-well tissue culture plate cells were seeded at 5×10^5 cells per well overnight. Cells were treated with an EC80 of the chemotherapeutic agent. Following treatment, cells were washed once with cold PBS and lysed in 1× Cell Extraction Buffer from Biosource (Carlsbad, Calif.) supplemented with protease inhibitors (Roche, Mannheim, Germany), 1 mM PMSF, and Phosphatase Inhibitor Cocktails 1 and 2 from Sigma (St. Louis, Mo.). Determination of protein concentration was performed using the Pierce BCA Protein Assay Kit (Rockford, Ill.). Levels of pAkt (Ser^473) and total Akt were assessed using bead kits from Biosource (Carlsbad, Calif.) and the Luminex Bio-Plex system (Bio-Rad, Hercules, Calif.).

Consider `Nc1ccn([C@@H]2O[C@H](CO)[C@@H](O)C2(F)F)c(=O)n1` [Gemcitabine, 4-amino-1-[3,3-difluoro-4-hydroxy-5-(hydroxymethyl)tetrahydrofuran-2-yl]-1H-pyrimidin-2-one], for which the pAkt levels result was “increased pAkt levels”.
